# ± gives the expanded uncertainty stated by the source.
# Assay: Molar enthalpy of transition or fusion
# Details: Adiabatic calorimetry
compound,measurement,setting,value
CCCCCCCCCCCCCCCCCC(=O)OCC(COC(=O)CCCCCCCCCCCCCCCCC)OC(=O)CCCCCCCCCCCCCCCCC [glycerol trioctadecanoate],Molar enthalpy of transition or fusion,Crystal,47.22 ± 0.43 kcal/mol
same,Molar enthalpy of transition or fusion,Metastable crystal,30.9 ± 0.43 kcal/mol

# Source: the NIST ThermoML archive (doi:10.1021/je050092d)
